Laboratory results published in ChEMBL document CHEMBL2380238, “Synthesis, spectral and antimicrobial evaluation of some novel 1-methyl-3-alkyl-2,6-diphenylpiperidin-4-one oxime carbonates” (2013).
≈ marks a conversion by molar mass, not a printed value. Calls of active or inactive are those of the source. The rule behind the calls is not given here.

Assays:
Format in all cases: functional
Bacillus subtilis [1] = test: Antibacterial activity against Bacillus subtilis; also: test concentration or dose not given here
Klebsiella pneumoniae [2] = test: Antibacterial activity against Klebsiella pneumoniae after 24 hrs by broth dilution method
Aspergillus niger [3] = test: Antifungal activity against Aspergillus niger; also: test concentration or dose not given here
Pseudomonas aeruginosa [4] = test: Antibacterial activity against Pseudomonas aeruginosa after 24 hrs by broth dilution method
Pseudomonas aeruginosa [5] = test: Antibacterial activity against Pseudomonas aeruginosa
Penicillium [6] = test: Antifungal activity against Penicillium
Klebsiella pneumoniae [7] = test: Antibacterial activity against Klebsiella pneumoniae
Enterococcus faecalis [8] = test: Antibacterial activity against Streptococcus faecalis after 24 hrs by broth dilution method
Aspergillus flavus [9] = test: Antifungal activity against Aspergillus flavus after 72 to 96 hrs by broth dilution method
Bacillus subtilis [10] = test: Antibacterial activity against Bacillus subtilis after 24 hrs by broth dilution method
Penicillium [11] = test: Antifungal activity against Penicillium after 72 to 96 hrs by broth dilution method
Enterococcus faecalis [12] = test: Antibacterial activity against Streptococcus faecalis; also: test concentration or dose not given here
Escherichia coli [13] = test: Antibacterial activity against Escherichia coli; also: test concentration or dose not given here
Escherichia coli [14] = test: Antibacterial activity against Escherichia coli after 24 hrs by broth dilution method
Rhizopus [15] = test: Antifungal activity against Rhizopus; as to IZ: test concentration or dose not given here
Rhizopus [16] = test: Antifungal activity against Rhizopus after 72 to 96 hrs by broth dilution method
Fusarium [17] = test: Antifungal activity against Fusarium after 72 to 96 hrs by broth dilution method
Fusarium [18] = test: Antifungal activity against Fusarium
Aspergillus niger [19] = test: Antifungal activity against Aspergillus niger after 72 to 96 hrs by broth dilution method
Aspergillus flavus [20] = test: Antifungal activity against Aspergillus flavus; also: test concentration or dose not given here

SMILES | inhibition zone (IZ) (Bacillus subtilis [1]) | MIC (Klebsiella pneumoniae [2]) | inhibition zone (IZ) (Aspergillus niger [3]) | MIC (Pseudomonas aeruginosa [4]) | inhibition zone (IZ) (Pseudomonas aeruginosa [5]) | inhibition zone (IZ) (Penicillium [6]) | inhibition zone (IZ) (Klebsiella pneumoniae [7]) | MIC (Enterococcus faecalis [8]) | MIC (Aspergillus flavus [9]) | MIC (Bacillus subtilis [10]) | MIC (Penicillium [11]) | inhibition zone (IZ) (Enterococcus faecalis [12]) | inhibition zone (IZ) (Escherichia coli [13]) | MIC (Escherichia coli [14]) | inhibition zone (IZ) (Rhizopus [15]) | MIC (Rhizopus [16]) | MIC (Fusarium [17]) | inhibition zone (IZ) (Fusarium [18]) | MIC (Aspergillus niger [19]) | inhibition zone (IZ) (Aspergillus flavus [20])
CC(Cl)OC(=O)O/N=C1\CC(c2ccccc2)N(C)C(c2ccccc2)C1C (stereo not given) | 17 mm | 12.5 µg/mL (≈ 31.2 µM) | 17 mm | 25 µg/mL (≈ 62.4 µM) | 22 mm | 17 mm | 22 mm | 12.5 µg/mL (≈ 31.2 µM) | 50 µg/mL (≈ 125 µM) | 50 µg/mL (≈ 125 µM) | 25 µg/mL (≈ 62.4 µM) | 22 mm | 22 mm | 12.5 µg/mL (≈ 31.2 µM) | 17 mm | 25 µg/mL (≈ 62.4 µM) | 25 µg/mL (≈ 62.4 µM) | 17 mm | 50 µg/mL (≈ 125 µM) | 17 mm
CC(Cl)OC(=O)O/N=C1\CC(c2ccccc2)N(C)C(c2ccccc2)C1C(C)C (stereo not given) | 32 mm | 6.25 µg/mL (≈ 14.6 µM) | 17 mm | 6.25 µg/mL (≈ 14.6 µM) | 32 mm | 32 mm | 32 mm | 6.25 µg/mL (≈ 14.6 µM) | 25 µg/mL (≈ 58.3 µM) | 6.25 µg/mL (≈ 14.6 µM) | 12.5 µg/mL (≈ 29.1 µM) | 32 mm | 22 mm | 12.5 µg/mL (≈ 29.1 µM) | 22 mm | 25 µg/mL (≈ 58.3 µM) | 12.5 µg/mL (≈ 29.1 µM) | 32 mm | 25 µg/mL (≈ 58.3 µM) | 22 mm
COC(=O)O/N=C1\CC(c2ccccc2)N(C)C(c2ccccc2)C1C(C)C (stereo not given) | 12 mm | 200 µg/mL (≈ 526 µM) | inactive | 200 µg/mL (≈ 526 µM) | inactive | inactive | inactive | 50 µg/mL (≈ 131 µM) | 100 µg/mL (≈ 263 µM) | 12.5 µg/mL (≈ 32.9 µM) | 200 µg/mL (≈ 526 µM) | 12 mm | 17 mm | 12.5 µg/mL (≈ 32.9 µM) | inactive | 200 µg/mL (≈ 526 µM) | 200 µg/mL (≈ 526 µM) | inactive | 200 µg/mL (≈ 526 µM) | 12 mm
